For 15 compounds, TGI and GI50 results are on record in PubChem BioAssay (NCI).

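Assay format: 96-well plates, 48-hour exposure. GI50 marks 50% less growth. TGI marks complete inhibition of growth.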

Some test systems named below: A498 renal; ACHN renal; HT29 colon; M14 melanoma; MALME-3M melanoma; MOLT-4 leukemia; NCI-H522 lung; OVCAR-5 ovarian; OVCAR-8 ovarian; UACC-257 melanoma.
Holding throughout (test): NCI tumour cell line growth inhibition, 48 h

`COc1cccc(-c2cc(C(=O)Nc3ccc(Cl)cc3)nc(N)n2)c1`: the TGI in the assay on A498 renal, in the assay on ACHN renal, in the assay on HT29 colon, in the assay on M14 melanoma, with MALME-3M melanoma and with MOLT-4 leukemia was above 100 µM throughout. The TGI with NCI-H522 lung, with OVCAR-5 ovarian, in the assay on OVCAR-8 ovarian and in the assay on UACC-257 melanoma was above 100 µM each time.

With `CN1CCN2c3ccccc3CC(C#N)(C#N)C2C1` (centres undefined), the TGI in the assay on A498 renal, in the assay on ACHN renal, in the assay on HT29 colon, in the assay on M14 melanoma, in the assay on MALME-3M melanoma and in the assay with MOLT-4 leukemia was above 100 µM throughout. The TGI with NCI-H522 lung, with OVCAR-5 ovarian, in the assay with OVCAR-8 ovarian and in the assay with UACC-257 melanoma was above 100 µM each time.

As for `COc1ccc2c3c(ccc2c1)NC(C(=O)O)CC3` (centres undefined), the TGI in the assay with A498 renal is above 100 µM; in the assay with ACHN renal, above 100 µM; in the assay on HT29 colon it was above 100 µM; in the assay with M14 melanoma, above 100 µM; in the assay with MALME-3M melanoma, above 100 µM; with MOLT-4 leukemia it was 56.9 µM. The TGI in the assay with NCI-H522 lung, in the assay on OVCAR-5 ovarian, in the assay with OVCAR-8 ovarian and with UACC-257 melanoma was above 100 µM each time.

As for `COc1ccc2c(c1)O/C(=C\c1ccc([N+](=O)[O-])o1)C2=O`, the GI50 in the assay on A498 renal is 1.74 µM; in the assay on ACHN renal it was 0.625 µM; in the assay with HT29 colon it was 0.452 µM; in the assay with M14 melanoma, 1.64 µM; with MALME-3M melanoma, 2.45 µM; in the assay with MOLT-4 leukemia, 2.13 µM. The GI50 is 1.25 µM with NCI-H522 lung, 2.27 µM in the assay on OVCAR-5 ovarian, 1.41 µM in the assay with OVCAR-8 ovarian and 1.72 µM in the assay with UACC-257 melanoma. Further, the TGI in the assay with A498 renal came out at 4.54 µM; with ACHN renal, 2.69 µM; in the assay with HT29 colon it was 1.92 µM; in the assay on M14 melanoma it was 3.74 µM; in the assay with MALME-3M melanoma it was 5.77 µM; with MOLT-4 leukemia it was 8.26 µM. Further, the TGI was 2.57 µM with NCI-H522 lung, 5.78 µM with OVCAR-5 ovarian, 7.46 µM with OVCAR-8 ovarian and 3.85 µM in the assay on UACC-257 melanoma.

For `COc1ccc(Nc2[nH]n(C3=Nc4ccccc4Sc4ccccc43)c(=O)c2C#N)cc1`, the GI50 was 1.39 µM with A498 renal; 1.15 µM in the assay with ACHN renal; 1.99 µM in the assay on HT29 colon; 2.49 µM in the assay on M14 melanoma; 2.67 µM with MALME-3M melanoma; 0.4 µM in the assay with NCI-H522 lung. Also, the GI50 in the assay on OVCAR-5 ovarian is 10.8 µM; in the assay on OVCAR-8 ovarian it was 2.01 µM; in the assay with UACC-257 melanoma it was 1.13 µM. For the same compound, the TGI is 8.01 µM in the assay on A498 renal; above 100 µM in the assay on ACHN renal; 9.35 µM in the assay with HT29 colon; 9.64 µM in the assay with M14 melanoma; above 100 µM with MALME-3M melanoma; 3.87 µM in the assay on NCI-H522 lung. In addition, the values for the TGI in the assay with OVCAR-5 ovarian, in the assay on OVCAR-8 ovarian and in the assay with UACC-257 melanoma were above 100 µM, above 100 µM and 7.03 µM, respectively.

As for `C[C@]12CC[C@H](OC(=O)Cc3ccc(N(CCCl)CCCl)cc3)CC1CC[C@@H]1C2CC[C@]2(C)NC(=O)CCC12` (some centres undefined), the TGI amounted to 43.5 µM in the assay on A498 renal; 27.7 µM in the assay on ACHN renal; 3.79 µM with HT29 colon; 28.8 µM with M14 melanoma; 35.7 µM in the assay on MALME-3M melanoma; 15.6 µM with MOLT-4 leukemia. The TGI in the assay on NCI-H522 lung stood at 25.4 µM; in the assay on UACC-257 melanoma, 27 µM.

For the compound `Nc1nc2ccccc2c2[nH]c3ccccc3c12`, the GI50 with A498 renal is 1.16 µM; with ACHN renal, 0.485 µM; in the assay on HT29 colon, 0.509 µM; in the assay with M14 melanoma, 1.6 µM; in the assay on MALME-3M melanoma it was 1.61 µM; in the assay on NCI-H522 lung, 0.901 µM. Further, the values for the GI50 in the assay on OVCAR-5 ovarian, with OVCAR-8 ovarian and in the assay on UACC-257 melanoma were 1.84 µM, 0.985 µM and 1.64 µM, respectively. In addition, the TGI in the assay on A498 renal was found to be 2.42 µM; with ACHN renal, 1.79 µM; in the assay on HT29 colon it was 1.93 µM; with M14 melanoma, 2.95 µM; in the assay with MALME-3M melanoma, 3.19 µM; in the assay on NCI-H522 lung it was 2.14 µM. Moreover, the TGI with OVCAR-5 ovarian is 4.11 µM; in the assay with OVCAR-8 ovarian, 2.16 µM; in the assay with UACC-257 melanoma, 2.99 µM.

For `CN(Cc1ccccc1)c1ncnc2ccc(Br)cc12`, the GI50 is 4.8 µM in the assay on A498 renal; 12.6 µM in the assay on ACHN renal; 12.9 µM in the assay on M14 melanoma; 10.9 µM with MALME-3M melanoma; 5.77 µM in the assay on MOLT-4 leukemia; 23.1 µM in the assay with NCI-H522 lung. The GI50 with OVCAR-5 ovarian is 15.3 µM; with OVCAR-8 ovarian, 26.1 µM. Also, the TGI was 17.1 µM with A498 renal; 28.1 µM with ACHN renal; 25.7 µM with M14 melanoma; 23.2 µM in the assay on MALME-3M melanoma; 28.8 µM in the assay with MOLT-4 leukemia; above 100 µM with NCI-H522 lung. Besides, the values for the TGI in the assay on OVCAR-5 ovarian and in the assay with OVCAR-8 ovarian were 31.3 µM and 95.5 µM, respectively.

As for `COc1cc(/C=C/C(=O)c2ccc(F)cc2)ccc1OCCCCOc1cc2c(cc1OC)C(=O)N1CCCC1C=N2` (centres undefined), the GI50 with A498 renal is 0.882 µM; in the assay with ACHN renal it was 1.07 µM; in the assay on HT29 colon it was 0.895 µM; in the assay on M14 melanoma it was 2.11 µM; in the assay with MALME-3M melanoma, 0.835 µM; with MOLT-4 leukemia, 0.317 µM. The GI50 with NCI-H522 lung is 1.64 µM; with OVCAR-5 ovarian it was 3.85 µM; in the assay on OVCAR-8 ovarian, 1.55 µM. For the same compound, the TGI with A498 renal was 5.48 µM; in the assay on ACHN renal, above 20.5 µM; with HT29 colon, above 20.4 µM; in the assay with M14 melanoma it was 4.08 µM; in the assay with MALME-3M melanoma it was 18.3 µM; in the assay with MOLT-4 leukemia, 2.18 µM. The TGI in the assay with NCI-H522 lung was 4.35 µM; with OVCAR-5 ovarian it was above 26.6 µM; in the assay with OVCAR-8 ovarian it was above 20.2 µM.

Consider `O=c1ncc(I)c[nH]1`, for which the GI50 in the assay with A498 renal, in the assay on ACHN renal, with M14 melanoma, in the assay with MALME-3M melanoma, in the assay on MOLT-4 leukemia and with NCI-H522 lung was above 100 µM throughout. Moreover, the GI50 with OVCAR-5 ovarian, in the assay with OVCAR-8 ovarian and in the assay on UACC-257 melanoma was above 100 µM throughout. The TGI with A498 renal, in the assay with ACHN renal, in the assay on M14 melanoma, in the assay on MALME-3M melanoma, with MOLT-4 leukemia and with NCI-H522 lung was above 100 µM throughout. The TGI with OVCAR-5 ovarian, in the assay with OVCAR-8 ovarian and with UACC-257 melanoma was above 100 µM each time.

`Oc1ccccc1/C=N/Nc1nc2ccccc2s1`: the GI50 with A498 renal is 32.4 µM; in the assay on ACHN renal, 6.14 µM; in the assay with HT29 colon, 21.1 µM; with MALME-3M melanoma, 30 µM; in the assay with MOLT-4 leukemia it was 4.4 µM; with NCI-H522 lung, 4.74 µM. Further, the GI50 is above 100 µM with OVCAR-5 ovarian, 12 µM in the assay with OVCAR-8 ovarian and 8.87 µM in the assay on UACC-257 melanoma. The TGI with A498 renal, in the assay on ACHN renal, with HT29 colon, in the assay with MALME-3M melanoma, with MOLT-4 leukemia and in the assay on NCI-H522 lung was above 100 µM in each case. Further, the TGI with OVCAR-5 ovarian, in the assay on OVCAR-8 ovarian and with UACC-257 melanoma was above 100 µM in each case.

For the compound `Cc1cc(C)nc(NS(=O)(=O)c2ccc(Nc3nc4nc(NCc5ccccc5)nc(-c5ccc(O)cc5)c4c(=O)[nH]3)cc2)n1`, the GI50 is 24.5 µM in the assay with A498 renal; 29.6 µM in the assay on ACHN renal; 57.9 µM with HT29 colon; 37.5 µM in the assay with M14 melanoma; 32.8 µM in the assay on MALME-3M melanoma; 2.38 µM in the assay on MOLT-4 leukemia. Besides, the GI50 was 2.61 µM in the assay on NCI-H522 lung, above 100 µM in the assay on OVCAR-5 ovarian and 36.5 µM in the assay on OVCAR-8 ovarian. The TGI in the assay on A498 renal is above 100 µM; in the assay with ACHN renal, above 100 µM; in the assay on HT29 colon, above 100 µM; with M14 melanoma it was above 100 µM; with MALME-3M melanoma, above 100 µM; in the assay with MOLT-4 leukemia, 12.8 µM. Moreover, the TGI was 22.8 µM in the assay with NCI-H522 lung, above 100 µM in the assay on OVCAR-5 ovarian and above 100 µM in the assay on OVCAR-8 ovarian.

For `NC(N)=NS(=O)(=O)c1ccc(NC(=O)c2cccn3c(=O)c4ccccc4nc23)cc1`, the TGI in the assay with A498 renal is above 100 µM; with ACHN renal, above 100 µM; in the assay with HT29 colon, above 100 µM; in the assay with M14 melanoma, above 100 µM; in the assay with MALME-3M melanoma, above 100 µM; with MOLT-4 leukemia, 85.9 µM. The TGI was above 100 µM in the assay on NCI-H522 lung, above 100 µM in the assay with OVCAR-8 ovarian and 58.7 µM in the assay on UACC-257 melanoma.

`CC12CCC(=O)N1c1cc([N+](=O)[O-])ccc1N2` (centres undefined): the TGI with A498 renal, with ACHN renal, with HT29 colon, in the assay on M14 melanoma, in the assay with MALME-3M melanoma and in the assay with MOLT-4 leukemia was above 100 µM throughout. In addition, the TGI in the assay with NCI-H522 lung, with OVCAR-8 ovarian and in the assay on UACC-257 melanoma was above 100 µM in each case.

Turning to `NNC(=O)C(O)C(O)C(O)CO` (centres undefined), the TGI with A498 renal, in the assay with ACHN renal, with HT29 colon, in the assay with M14 melanoma, in the assay on MALME-3M melanoma and with NCI-H522 lung was above 100 µM throughout. Also, the TGI with OVCAR-5 ovarian, in the assay on OVCAR-8 ovarian and with UACC-257 melanoma was above 100 µM in each case.
